Target: Progesterone receptor (Gallus gallus) (UniProt P07812)
Assay: Equilibrium dissociation constant for chick oviduct progesterone receptor

Sequence of Progesterone receptor (Gallus gallus) (P07812 whole entry, looked up): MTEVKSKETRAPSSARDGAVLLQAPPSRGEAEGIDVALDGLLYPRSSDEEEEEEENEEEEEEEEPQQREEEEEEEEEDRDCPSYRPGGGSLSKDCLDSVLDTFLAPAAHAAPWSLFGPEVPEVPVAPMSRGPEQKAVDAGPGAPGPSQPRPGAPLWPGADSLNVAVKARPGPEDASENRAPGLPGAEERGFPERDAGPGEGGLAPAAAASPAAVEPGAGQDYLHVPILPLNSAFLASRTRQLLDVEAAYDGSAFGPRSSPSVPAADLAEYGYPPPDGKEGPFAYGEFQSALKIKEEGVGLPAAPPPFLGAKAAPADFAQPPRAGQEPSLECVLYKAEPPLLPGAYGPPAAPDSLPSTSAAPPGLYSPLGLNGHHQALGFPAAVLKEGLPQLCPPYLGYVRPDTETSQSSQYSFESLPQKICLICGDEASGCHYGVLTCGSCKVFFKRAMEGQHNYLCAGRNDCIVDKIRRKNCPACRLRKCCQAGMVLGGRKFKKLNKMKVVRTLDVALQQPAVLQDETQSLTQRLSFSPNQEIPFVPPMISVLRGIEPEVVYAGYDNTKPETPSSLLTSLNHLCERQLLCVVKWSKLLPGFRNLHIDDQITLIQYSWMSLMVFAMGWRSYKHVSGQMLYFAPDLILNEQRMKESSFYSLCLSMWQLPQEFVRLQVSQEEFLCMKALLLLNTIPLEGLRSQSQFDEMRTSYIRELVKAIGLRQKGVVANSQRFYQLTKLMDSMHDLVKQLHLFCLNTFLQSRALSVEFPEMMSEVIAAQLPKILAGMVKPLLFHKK

- Kd: 0.16 µM
Structure (SMILES): C#C[C@@H](O)C12CCCC1C1CCC3=CC(=O)CC[C@@H]3C1CC2 (stereo partly specified)

Reference: BindingDB's records for doi:10.1021/jm00375a008 (1984)
